Results: patent US20210156868A1, “COMPOSITIONS AND METHODS FOR DETECTING ALBUMIN” (Tournament BioVenture LLC, priority 2019, published 2021)
“Also recorded” adds a separate entry of the source.

Assays:
[1] = target: HSA pseudo esterase (Homo sapiens, UniProt P02768); test: Michaelis-Menten kinetics of HSA pseudo esterase (FIG. 3); assay type: biochemical; settings: 14:0 NPS-PC as probe
[2] = target: albumin (Homo sapiens, UniProt P02768); test: Effects of solvent and additives on pseudo-lipase activity of albumin (FIG. 13); assay type: biochemical
Chain of albumin (P02768 25-609): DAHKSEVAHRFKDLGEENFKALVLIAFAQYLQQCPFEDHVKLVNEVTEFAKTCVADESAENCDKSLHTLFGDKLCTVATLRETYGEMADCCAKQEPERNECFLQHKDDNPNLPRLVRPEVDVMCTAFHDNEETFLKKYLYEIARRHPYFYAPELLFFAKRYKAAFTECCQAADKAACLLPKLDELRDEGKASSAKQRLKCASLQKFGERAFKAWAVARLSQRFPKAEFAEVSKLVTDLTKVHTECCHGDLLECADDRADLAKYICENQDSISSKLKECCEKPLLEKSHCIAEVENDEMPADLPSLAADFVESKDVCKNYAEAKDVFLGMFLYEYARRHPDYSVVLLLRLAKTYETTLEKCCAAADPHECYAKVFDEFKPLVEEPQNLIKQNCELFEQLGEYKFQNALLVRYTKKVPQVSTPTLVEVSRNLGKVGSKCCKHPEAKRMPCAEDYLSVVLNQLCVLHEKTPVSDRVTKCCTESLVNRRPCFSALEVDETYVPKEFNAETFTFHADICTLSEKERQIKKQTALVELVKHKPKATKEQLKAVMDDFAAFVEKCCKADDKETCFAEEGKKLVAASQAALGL
Excerpt: Dimethyl sulfoxide (DMSO), EDTA and Tween-20 had been used to determine the tolerable concentration of organic solvent.

[3] = tested on: Ca^2+ dependent PLA2; settings: 5 mM in the assay buffer
[4] = tested on: non-albumin esterase activity (PLA2 activity in human serum, associated with LDL or HDL); test: Inhibition of non-albumin esterase (PLA2) activity with 14:0 NPS-PC as probe (FIG. 4); assay type: biochemical; settings: for sensitivity of non-albumin (LDL/HDL, PLA2) esterase activity compared to pseudo esterase activity of albumin: human serum, 14:0 NPS-PC probe
Method: The reaction was started by the addition of 110 μl of TBS reaction buffer (10 mM Tris-HCl, 150 mM NaCl, pH 7.4) containing […] 14:0 NPS-PC and 5 mM EDTA to 20 μl of HSA solution in a well of a 96-well plate. The reactions were followed at wavelength 405 nm (absorbance) in a SPECTRAmax M5 plate reader.
As shown in EXAMPLE 1, using 14:0 NPS-PC as probe also identified non-albumin esterase activity, i.e. PLA2 activity in human serum, which is mainly associated with HDL and LDL. […] Pefabloc at 15-20 mM (final concentration) can eliminate all non-albumin esterase activity but maintain >90% of albumin esterase activity when assayed with 1.5 mM 14:0 NPS-PC at pH 7.4.

[5] = tested on: non-HSA esterase activity associated with HDL; test: Inactivation of HDL-associated esterase activity on incubation with Pefabloc SC (FIG. 5); assay type: biochemical, human; settings: 2 mM Pefabloc SC
[6] = tested on: human serum non-HSA esterase activity; test: Inactivation of non-HSA esterase activity in mix of 20 human sera (FIG. 6, FIG. 7); assay type: biochemical; settings: 1 mM Pefabloc SC, 24° C., hydrochloride
Method: When human serum was incubated with 1 mM Pefabloc, the non-HSA esterase activity can be abolished in about 10 minutes.

[7] = target: HSA pseudo esterase activity (Homo sapiens, UniProt P02768); settings: 2 mM Pefabloc SC incubation; HSA 44 mg/ml in TBS, pH 7.4; hydrochloride
Chain of HSA pseudo esterase activity (P02768 25-609): as above

[8] = Solubility in water; assay type: physicochemical

Chain of HSA pseudo esterase (P02768 25-609): as above

In the case of CCCCCCCCCCCCCC(=O)OC[C@H](COP(=O)([O-])OCC[N+](C)(C)C)OC(=O)CCC(=O)Oc1ccc([N+](=O)[O-])cc1 [14:0 NPS-PC, 1-myristoyl-2-(4-nitrophenylsuccinyl)-sn-glycero-3-phosphocholine], the “Km in the pseudo esterase reaction of HSA” value [1] is reported as “relative low Km”.
In the case of C[S+](C)[O-] [DMSO, Dimethyl sulfoxide], the “effect on the assay of albumin” value [2] is reported as “does not have effects”.
With O=C(O)CN(CCN(CC(=O)O)CC(=O)O)CC(=O)O [EDTA] the “activity of Ca^2+ dependent PLA2 towards 14:0 NPS-PC” value [3] was “suppresses”.
In the case of O=S(=O)(F)Cc1ccccc1 [PMSF, phenylmethylsulfonyl fluoride], the “sensitivity of non-albumin (LDL/HDL, PLA2) esterase activity compared to pseudo esterase activity of albumin” value [4] is reported as “much more sensitive”.
In the case of Cl.NCCc1ccc(S(=O)(=O)F)cc1 [Pefabloc SC, 4-(2-aminoethyl)benzenesulfonyl fluoride hydrochloride], the “sensitivity of non-albumin (LDL/HDL, PLA2) esterase activity compared to pseudo esterase activity of albumin” value [4] is reported as “much more sensitive”, the non-albumin esterase activity ([4]; inhibitor 15-20 mM final concentration, 1.5 mM 14:0 NPS-PC, pH 7.4) is reported as “eliminate all” and the “non-HSA esterase activity associated with HDL depleted” value ([5]; 6 hr of incubation, HDL 2.5 mg/ml of cholesterol) is reported as “About 80%”. The “incubation time to complete inactivation of HDL-associated esterase activity” value ([5]; purified HDL) was 6 to 10 h, the “incubation time to complete inactivation of human serum non-HSA esterase activity” value [6] was “about 15 min” and the “incubation time to complete inactivation of human serum non-HSA esterase activity” value ([6]; listed as Pefabloc) was “about 10 min”. The “inactivation of HSA pseudo esterase activity” value [7] was “No inactivation; also recorded: no activity loss”.
For CCN(CC)CCN(Cc1ccc(-c2ccc(C(F)(F)F)cc2)cc1)C(=O)Cn1c(SCc2ccc(F)cc2)nc(=O)c2c1CCC2 [darapladib], the solubility in water [8] was “insoluble in water”.
